# Data: US11986493B2 (University of Pittsburgh—Of the Commonwealth System of …, priority 2013, dated 2024)
# System: subjects with pulmonary hypertension
# Assay: Systemic blood pressure (noninvasive) and heart rate monitoring during the study
# Method: During the study right heart/pulmonary artery hemodynamics were measured as well as noninvasive systemic blood pressure monitoring and simultaneous RV echocardiography. Subjects were tested for the changes in pulmonary vascular resistance (PVR) measured by right heart catheterization and using thermodilution cardiac output measurement at time zero, at times 15, 30 and 45 minutes after completion of each nebulization dose.
# Subjects were monitored closely for changes in blood pressure during the study. […] Subjects were continued to be monitored closely every 10 minutes for 2 hours.
# [1] = Patient 1, nitrite 45 mg inhaled, 15 min
# [2] = Patient 1, nitrite 45 mg inhaled, 30 min
# [3] = Patient 1, nitrite 45 mg inhaled, 45 min
# [4] = Patient 1, nitrite 45 mg inhaled, 60 min
# [5] = Patient 1, nitrite 90 mg inhaled, 15 min
# [6] = Patient 1, nitrite 90 mg inhaled, 30 min
# [7] = Patient 1, nitrite 90 mg inhaled, 45 min
# [8] = Patient 1, nitrite 90 mg inhaled, 60 min
# [9] = Patient 2, nitrite 45 mg inhaled, 15 min
# [10] = Patient 2, nitrite 45 mg inhaled, 30 min
# [11] = Patient 2, nitrite 45 mg inhaled, 45 min
# [12] = Patient 2, nitrite 45 mg inhaled, 60 min
# [13] = Patient 2, nitrite 90 mg inhaled, 15 min
# [14] = Patient 2, nitrite 90 mg inhaled, 30 min
# [15] = Patient 2, nitrite 90 mg inhaled, 45 min
# [16] = Patient 2, nitrite 90 mg inhaled, 60 min
# [17] = Patient 3, nitrite 45 mg inhaled, 15 min
# [18] = Patient 3, nitrite 45 mg inhaled, 30 min
# [19] = Patient 3, nitrite 45 mg inhaled, 45 min
# [20] = Patient 3, nitrite 45 mg inhaled, 60 min
# [21] = Patient 3, nitrite 90 mg inhaled, 15 min
# [22] = Patient 3, nitrite 90 mg inhaled, 30 min
# [23] = Patient 3, nitrite 90 mg inhaled, 45 min
# [24] = Patient 3, nitrite 90 mg inhaled, 60 min
# [25] = Patient 4, nitrite 45 mg inhaled, 15 min
# [26] = Patient 4, nitrite 45 mg inhaled, 30 min
# [27] = Patient 4, nitrite 45 mg inhaled, 45 min
# [28] = Patient 4, nitrite 45 mg inhaled, 60 min
# [29] = Patient 4, nitrite 90 mg inhaled, 15 min
# [30] = Patient 4, nitrite 90 mg inhaled, 30 min
# [31] = Patient 4, nitrite 90 mg inhaled, 45 min
# [32] = Patient 4, nitrite 90 mg inhaled, 60 min
# [33] = Patient 5, nitrite 45 mg inhaled, 15 min
# [34] = Patient 5, nitrite 45 mg inhaled, 30 min
# [35] = Patient 5, nitrite 45 mg inhaled, 45 min
# [36] = Patient 5, nitrite 45 mg inhaled, 60 min
# [37] = Patient 5, nitrite 90 mg inhaled, 15 min
# [38] = Patient 5, nitrite 90 mg inhaled, 30 min
# [39] = Patient 5, nitrite 90 mg inhaled, 45 min
# [40] = Patient 5, nitrite 90 mg inhaled, 60 min
# [41] = at the doses tested (45 mg and 90 mg inhaled)
smiles,measurement,setting,value
"O=NO [nitrite, sodium nitrite]",HR,[1],81
same,Systemic DBP,[1],71
same,Systemic SBP,[1],109
same,Systemic mBP,[1],83.68
same,HR,[2],83
same,Systemic DBP,[2],78
same,Systemic SBP,[2],108
same,Systemic mBP,[2],88.01
same,HR,[3],82
same,Systemic DBP,[3],72
same,Systemic SBP,[3],109
same,Systemic mBP,[3],84.34
same,HR,[4],88
same,Systemic DBP,[4],78
same,Systemic SBP,[4],108
same,Systemic mBP,[4],88.01
same,HR,[5],93
same,Systemic DBP,[5],67
same,Systemic SBP,[5],97
same,Systemic mBP,[5],77.01
same,HR,[6],93
same,Systemic DBP,[6],66
same,Systemic SBP,[6],102
same,Systemic mBP,[6],78.01
same,HR,[7],94
same,Systemic DBP,[7],62
same,Systemic SBP,[7],102
same,Systemic mBP,[7],75.34
same,HR,[8],92
same,Systemic DBP,[8],67
same,Systemic SBP,[8],105
same,Systemic mBP,[8],79.68
same,HR,[9],74
same,Systemic DBP,[9],82
same,Systemic SBP,[9],136
same,Systemic mBP,[9],100.01
same,HR,[10],73
same,Systemic DBP,[10],75
same,Systemic SBP,[10],137
same,Systemic mBP,[10],95.68
same,HR,[11],75
same,Systemic DBP,[11],75
same,Systemic SBP,[11],137
same,Systemic mBP,[11],95.68
same,HR,[12],77
same,Systemic DBP,[12],68
same,Systemic SBP,[12],132
same,Systemic mBP,[12],89.34
same,HR,[13],74
same,Systemic DBP,[13],76
same,Systemic SBP,[13],142
same,Systemic mBP,[13],98.01
same,HR,[14],74
same,Systemic DBP,[14],77
same,Systemic SBP,[14],132
same,Systemic mBP,[14],95.34
same,HR,[15],76
same,Systemic DBP,[15],81
same,Systemic SBP,[15],141
same,Systemic mBP,[15],101.01
same,HR,[16],77
same,Systemic DBP,[16],78
same,Systemic SBP,[16],143
same,Systemic mBP,[16],99.68
same,HR,[17],63
same,Systemic DBP,[17],55
same,Systemic SBP,[17],96
same,Systemic mBP,[17],68.67
same,HR,[18],51
same,Systemic DBP,[18],56
same,Systemic SBP,[18],95
same,Systemic mBP,[18],69.01
same,HR,[19],67
same,Systemic DBP,[19],59
same,Systemic SBP,[19],92
same,Systemic mBP,[19],70.01
same,HR,[20],63
same,Systemic DBP,[20],52
same,Systemic SBP,[20],106
same,Systemic mBP,[20],70.01
same,HR,[21],68
same,Systemic DBP,[21],54
same,Systemic SBP,[21],100
same,Systemic mBP,[21],69.34
same,HR,[22],71
same,Systemic DBP,[22],58
same,Systemic SBP,[22],102
same,Systemic mBP,[22],72.68
same,HR,[23],70
same,Systemic DBP,[23],54
same,Systemic SBP,[23],100
same,Systemic mBP,[23],69.34
same,HR,[24],72
same,Systemic DBP,[24],59
same,Systemic SBP,[24],103
same,Systemic mBP,[24],73.68
same,HR,[25],72
same,Systemic DBP,[25],73
same,Systemic SBP,[25],137
same,Systemic mBP,[25],94.34
same,HR,[26],69
same,Systemic DBP,[26],77
same,Systemic SBP,[26],134
same,Systemic mBP,[26],96.01
same,HR,[27],72
same,Systemic DBP,[27],71
same,Systemic SBP,[27],134
same,Systemic mBP,[27],92.01
same,HR,[28],71
same,Systemic DBP,[28],71
same,Systemic SBP,[28],131
same,Systemic mBP,[28],91.01
same,HR,[29],61
same,Systemic DBP,[29],64
same,Systemic SBP,[29],120
same,Systemic mBP,[29],82.68
same,HR,[30],70
same,Systemic DBP,[30],68
same,Systemic SBP,[30],126
same,Systemic mBP,[30],87.34
same,HR,[31],63
same,Systemic DBP,[31],63
same,Systemic SBP,[31],121
same,Systemic mBP,[31],82.34
same,HR,[32],63
same,Systemic DBP,[32],66
same,Systemic SBP,[32],129
same,Systemic mBP,[32],87.01
same,HR,[33],58
same,Systemic DBP,[33],49
same,Systemic SBP,[33],91
same,Systemic mBP,[33],63.01
same,HR,[34],53
same,Systemic DBP,[34],52
same,Systemic SBP,[34],95
same,Systemic mBP,[34],66.34
same,HR,[35],65
same,Systemic DBP,[35],52
same,Systemic SBP,[35],98
same,Systemic mBP,[35],67.34
same,HR,[36],62
same,Systemic DBP,[36],45
same,Systemic SBP,[36],95
same,Systemic mBP,[36],61.67
same,HR,[37],59
same,Systemic DBP,[37],53
same,Systemic SBP,[37],100
same,Systemic mBP,[37],68.68
same,HR,[38],61
same,Systemic DBP,[38],49
same,Systemic SBP,[38],102
same,Systemic mBP,[38],66.68
same,HR,[39],65
same,Systemic DBP,[39],47
same,Systemic SBP,[39],94
same,Systemic mBP,[39],62.67
same,HR,[40],58
same,Systemic DBP,[40],54
same,Systemic SBP,[40],107
same,Systemic mBP,[40],71.68
same,HR,"Patient 6, nitrite 45, 15 min",95
same,Systemic DBP,"Patient 6, nitrite 45, 15 min",58
same,Systemic SBP,"Patient 6, nitrite 45, 15 min",110
same,Systemic mBP,"Patient 6, nitrite 45, 15 min",75.3426
same,HR,"Patient 6, nitrite 45, 30 min",99
same,Systemic DBP,"Patient 6, nitrite 45, 30 min",65
same,Systemic SBP,"Patient 6, nitrite 45, 30 min",127
same,Systemic mBP,"Patient 6, nitrite 45, 30 min",85.6773
same,HR,"Patient 6, nitrite 45, 45 min",96
same,Systemic DBP,"Patient 6, nitrite 45, 45 min",66
same,Systemic SBP,"Patient 6, nitrite 45, 45 min",126
same,Systemic mBP,"Patient 6, nitrite 45, 45 min",86.0106
same,HR,"Patient 6, nitrite 45, 60 min",97
same,Systemic DBP,"Patient 6, nitrite 45, 60 min",65
same,Systemic SBP,"Patient 6, nitrite 45, 60 min",128
same,Systemic mBP,"Patient 6, nitrite 45, 60 min",86.0107
same,HR,"Patient 6, nitrite 90, 15 min",93
same,Systemic DBP,"Patient 6, nitrite 90, 15 min",59
same,Systemic SBP,"Patient 6, nitrite 90, 15 min",112
same,Systemic mBP,"Patient 6, nitrite 90, 15 min",76.6761
same,HR,"Patient 6, nitrite 90, 30 min",95
same,Systemic DBP,"Patient 6, nitrite 90, 30 min",66
same,Systemic SBP,"Patient 6, nitrite 90, 30 min",110
same,Systemic mBP,"Patient 6, nitrite 90, 30 min",80.6762
same,HR,"Patient 6, nitrite 90, 45 min",90
same,Systemic DBP,"Patient 6, nitrite 90, 45 min",60
same,Systemic SBP,"Patient 6, nitrite 90, 45 min",114
same,Systemic mBP,"Patient 6, nitrite 90, 45 min",78.0096
same,HR,"Patient 6, nitrite 90, 60 min",91
same,Systemic DBP,"Patient 6, nitrite 90, 60 min",58
same,Systemic SBP,"Patient 6, nitrite 90, 60 min",111
same,Systemic mBP,"Patient 6, nitrite 90, 60 min",75.676
same,heart rate,[41],does not significantly affect
same,systemic blood pressure,[41],does not significantly affect
